In patent US11834458B2, “Anti-cancer nuclear hormone receptor-targeting compounds” (Nuvation Bio Inc., priority 2021, dated 2023):
Read-outs that look alike come from different tables or passages of the source.

Legend:
AR = AR (Homo sapiens (Human), UniProt P10275, T878A); test: AR binding assay
Method: AR binding assay: To assess AR binding, test compound (top dose 10 μM, 4 fold serial dilution, 8 point dose response) and control (progesterone) were transferred to the assay plate. Cytosol from LnCaP cells was added to the plate, followed by addition of radiolabeled ^3H-R1881 at a final concentration of 1 nM. The plate was sealed, and the reaction was incubated at 300 rpm at 4° C. for 24 hrs. Radioligand absorption buffer (10 mM Tris-HCl, pH 7.4; 1.5 mM EDTA; 1 mM DTT; 0.25% charcoal; 0.0025% dextran) was then added to the plate, mixed, and incubated at 4° C. for 15 minutes. The plate was then centrifuged at 3000 rpm for 30 minutes at 4° C. The supernatant was transferred to the scint-tube and Tri-carb was used for scintillation counting. The data was analyzed using GraphPadPrism v5.0 and binding IC50 was determined as the concentration where 50% inhibition of radioligand binding was observed.

[1] = target: full-length androgen receptor (Homo sapiens (Human), UniProt P10275); test: AR antagonism assay; format: cell-based; conditions: HEK293 cells stably expressing full-length androgen receptor, testosterone 1 nM, 20 h; read-out: AR antagonism
Method: AR antagonism assay: To evaluate AR antagonist activity, test compound was added to the assay plate (top dose 10 μM, 3 fold serial dilution, 10 point dose response). HEK293 cells stably expressing the full-length androgen receptor were seeded at a density of 20,000 cells/well in the assay plate. The assay plate was then incubated at room temperature for 10 minutes and at 37° C., 5% CO2 for 20 minutes. Testosterone was added to the assay plate at 1 nM final concentration and the assay plate incubated at 37° C., 5% CO2 for 20 h. After the incubation period, Steady-glo was added to the assay plate and mixed at room temperature for 20 minutes on an orbital shaker, before reading out on the EnVision plate reader.

GR = GR (Homo sapiens (Human), UniProt P04150); test: GR binding assay; conditions: cytosol from IM-9 cells, 3H-Dexamethasone 1.5 nM, 4° C. 24 hrs
Method: GR binding assay: To assess GR binding, test compound (top dose 1 μM, 4 fold serial dilution, 8 point dose response) and control (dexamethasone) were transferred to the assay plate. Cytosol from IM-9 cells was added to the plate, followed by addition of radiolabeled ^3H-Dexamethasone at a final concentration of 1.5 nM. The plate was sealed, and the reaction was incubated at 300 rpm at 4° C. for 24 hrs. Radioligand absorption buffer (10 mM Tris-HCl, pH 7.4; 1.5 mM EDTA; 1 mM DTT; 0.25% charcoal; 0.0025% dextran) was then added to the plate, mixed, and incubated at 4° C. for 15 minutes. The plate was then centrifuged at […] for 30 minutes at 4° C. The supernatant was transferred to the scint-tube and Tri-carb was used for scintillation counting. The data was analyzed using GraphPadPrism v5.0 and binding IC50 was determined as the concentration where 50% inhibition of radioligand binding was observed.

[2] = target: ligand binding domain of the glucocorticoid receptor (Homo sapiens (Human), UniProt P04150); test: GR antagonism assay; format: cell-based; conditions: HEK293 cells stably expressing GR ligand binding domain, dexamethasone 1.5 nM, 20 h
Method: GR antagonism assay: To evaluate GR antagonist activity, test compound was added to the assay plate (top dose 5 μM, 4 fold serial dilution, 8 point dose response). HEK293 cells stably expressing the ligand binding domain of the glucocorticoid receptor were seeded at a density of 40,000 cells/well in the assay plate. The assay plate was then incubated at 37° C., 5% CO2 for 30 minutes. Dexamethasone was added to the assay plate at 1.5 nM final concentration and the assay plate was incubated at 37° C., 5% CO2 for 20 h. After the incubation period, Dual-glo luciferase reagent was added to the assay plate and mixed at room temperature for 20 minutes on an orbital shaker, before reading out on the EnVision plate reader.

[3] = target: Progesterone PR-B receptors (Homo sapiens (Human), UniProt P06401); test: PR binding assay; conditions: human breast carcinoma T47D cells, 0.5 nM [3H]Progesterone, 20 hours at 4° C.
Method: PR binding assay: Progesterone PR-B receptors from human breast carcinoma T47D cells were used in modified Na2HPO4/NaH2PO4 buffer pH 7.4. Compounds were screened at a range of doses (Top dose 40 nM, 4 fold serial dilution, 8 point dose response) and dispensed into the assay plate. Supernatant of 1.2×10^5 cells aliquot were added to the assay plate and incubated with 0.5 nM [^3H]Progesterone for 20 hours at 4° C. Membranes were filtered and washed, the filters were then counted to determine [^3H]Progesterone specifically bound. Binding IC50 was determined as the concentration where 50% inhibition of radioligand binding was observed.

[4] = target: Progesterone Receptor (PR)-LBD (Homo sapiens (Human), UniProt P06401); test: PR coactivator antagonist assay; format: biochemical; conditions: 2.5 nM PR-LBD and coactivator peptide, 10 nM progesterone-induced fluorescence response; read-out: PR antagonism
Method: PR coactivator antagonist assay: Test compound (Top dose 10 μM, 4 fold serial dilution, 8 point dose response) and/or vehicle was incubated with the 2.5 nM Progesterone Receptor (PR)-LBD and coactivator peptide for 30 minutes at RT. Determination of the amount of complex formed was read spectrofluorimetrically (excitation: 337 nm, emission: 520/490 nm). Test compound-induced inhibition of 10 nM progesterone-induced fluorescence response by 50 percent or more (≥50%) indicates receptor antagonist activity.

LNCap cells = test: Cell viability assay, LNCap; format: cell-based; conditions: Homo sapiens, LNCaP, 144 h, read-out: LNCap (GI50, nM)
Procedure, shortened: (§1)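 Cells seeded overnight at 37 °C, 5% CO2, with a T0 plate read at compound addition; compounds added in DMSO (final 0.1-0.2%) for 6 days. CellTiterGlo luminescence; inhibition calculated relative to day-0 and vehicle signals, giving GI50/IC50 values.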

T47D cells = test: Cell viability assay, T47D; format: cell-based; conditions: Homo sapiens, T47D, 144 h, read-out: T47D (GI50, nM)
Procedure, shortened: as §1

IEC6 cells = test: Cell viability assay, IEC6; format: cell-based; conditions: Rattus norvegicus, IEC-6, 144 h, read-out: IEC-6 (IC50, nM)
Procedure, shortened: as §1

Chain of Progesterone PR-B receptors (P06401 whole entry): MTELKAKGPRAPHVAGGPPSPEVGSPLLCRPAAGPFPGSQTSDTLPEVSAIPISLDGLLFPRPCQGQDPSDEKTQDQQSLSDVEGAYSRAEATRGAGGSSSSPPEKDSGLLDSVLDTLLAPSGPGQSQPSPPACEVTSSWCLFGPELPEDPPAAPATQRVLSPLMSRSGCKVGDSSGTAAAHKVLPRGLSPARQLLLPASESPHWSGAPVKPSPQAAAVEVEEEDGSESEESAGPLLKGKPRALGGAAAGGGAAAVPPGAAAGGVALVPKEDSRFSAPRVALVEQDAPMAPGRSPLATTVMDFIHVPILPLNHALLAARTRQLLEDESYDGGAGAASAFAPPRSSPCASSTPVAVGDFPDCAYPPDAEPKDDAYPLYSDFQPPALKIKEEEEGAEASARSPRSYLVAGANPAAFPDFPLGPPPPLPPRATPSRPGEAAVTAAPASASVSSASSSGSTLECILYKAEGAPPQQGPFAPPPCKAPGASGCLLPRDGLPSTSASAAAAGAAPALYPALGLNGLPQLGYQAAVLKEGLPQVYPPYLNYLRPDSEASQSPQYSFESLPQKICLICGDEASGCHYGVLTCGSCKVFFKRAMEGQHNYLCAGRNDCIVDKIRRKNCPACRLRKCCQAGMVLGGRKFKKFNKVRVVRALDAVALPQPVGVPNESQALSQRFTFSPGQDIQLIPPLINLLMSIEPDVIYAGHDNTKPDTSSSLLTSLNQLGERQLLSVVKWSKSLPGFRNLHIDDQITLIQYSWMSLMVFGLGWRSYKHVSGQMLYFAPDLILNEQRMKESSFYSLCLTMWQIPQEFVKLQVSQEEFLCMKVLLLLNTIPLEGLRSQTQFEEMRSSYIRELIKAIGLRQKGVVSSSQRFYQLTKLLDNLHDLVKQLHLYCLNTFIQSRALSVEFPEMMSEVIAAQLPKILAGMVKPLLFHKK
Chain of full-length androgen receptor (P10275 whole entry): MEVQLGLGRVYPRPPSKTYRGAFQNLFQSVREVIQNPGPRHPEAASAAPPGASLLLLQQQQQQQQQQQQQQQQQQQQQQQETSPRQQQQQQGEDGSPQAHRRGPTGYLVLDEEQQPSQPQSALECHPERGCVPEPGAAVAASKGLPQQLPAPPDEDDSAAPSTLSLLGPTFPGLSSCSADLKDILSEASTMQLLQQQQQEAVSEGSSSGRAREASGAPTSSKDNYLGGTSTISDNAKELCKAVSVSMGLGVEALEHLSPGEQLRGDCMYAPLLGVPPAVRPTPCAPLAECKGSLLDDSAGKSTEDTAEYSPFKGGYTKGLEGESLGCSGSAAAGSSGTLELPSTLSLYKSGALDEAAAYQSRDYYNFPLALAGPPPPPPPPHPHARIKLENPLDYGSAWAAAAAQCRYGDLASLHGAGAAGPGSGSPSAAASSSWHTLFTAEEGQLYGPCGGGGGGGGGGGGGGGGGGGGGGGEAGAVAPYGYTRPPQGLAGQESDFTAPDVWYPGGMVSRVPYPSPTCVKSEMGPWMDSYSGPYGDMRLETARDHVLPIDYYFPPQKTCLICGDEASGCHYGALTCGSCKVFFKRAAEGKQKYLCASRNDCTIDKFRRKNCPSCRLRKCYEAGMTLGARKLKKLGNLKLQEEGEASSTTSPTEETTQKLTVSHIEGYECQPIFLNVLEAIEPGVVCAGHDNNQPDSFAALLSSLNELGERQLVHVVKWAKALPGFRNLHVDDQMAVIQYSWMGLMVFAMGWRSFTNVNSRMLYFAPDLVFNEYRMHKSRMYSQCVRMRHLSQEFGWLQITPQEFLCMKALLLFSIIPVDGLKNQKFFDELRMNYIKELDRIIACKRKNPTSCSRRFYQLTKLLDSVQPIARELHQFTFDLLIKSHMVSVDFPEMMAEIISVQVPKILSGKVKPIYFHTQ
Chain of Progesterone Receptor (PR)-LBD (P06401 679-913, species assumed): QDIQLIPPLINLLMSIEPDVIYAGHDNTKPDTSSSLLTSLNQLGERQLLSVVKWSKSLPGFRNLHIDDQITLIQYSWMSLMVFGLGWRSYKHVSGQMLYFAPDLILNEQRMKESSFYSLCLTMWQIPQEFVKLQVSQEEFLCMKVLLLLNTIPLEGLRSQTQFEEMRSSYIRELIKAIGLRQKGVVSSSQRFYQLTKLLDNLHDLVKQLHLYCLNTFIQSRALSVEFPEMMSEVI
Chain of GR (P04150 whole entry): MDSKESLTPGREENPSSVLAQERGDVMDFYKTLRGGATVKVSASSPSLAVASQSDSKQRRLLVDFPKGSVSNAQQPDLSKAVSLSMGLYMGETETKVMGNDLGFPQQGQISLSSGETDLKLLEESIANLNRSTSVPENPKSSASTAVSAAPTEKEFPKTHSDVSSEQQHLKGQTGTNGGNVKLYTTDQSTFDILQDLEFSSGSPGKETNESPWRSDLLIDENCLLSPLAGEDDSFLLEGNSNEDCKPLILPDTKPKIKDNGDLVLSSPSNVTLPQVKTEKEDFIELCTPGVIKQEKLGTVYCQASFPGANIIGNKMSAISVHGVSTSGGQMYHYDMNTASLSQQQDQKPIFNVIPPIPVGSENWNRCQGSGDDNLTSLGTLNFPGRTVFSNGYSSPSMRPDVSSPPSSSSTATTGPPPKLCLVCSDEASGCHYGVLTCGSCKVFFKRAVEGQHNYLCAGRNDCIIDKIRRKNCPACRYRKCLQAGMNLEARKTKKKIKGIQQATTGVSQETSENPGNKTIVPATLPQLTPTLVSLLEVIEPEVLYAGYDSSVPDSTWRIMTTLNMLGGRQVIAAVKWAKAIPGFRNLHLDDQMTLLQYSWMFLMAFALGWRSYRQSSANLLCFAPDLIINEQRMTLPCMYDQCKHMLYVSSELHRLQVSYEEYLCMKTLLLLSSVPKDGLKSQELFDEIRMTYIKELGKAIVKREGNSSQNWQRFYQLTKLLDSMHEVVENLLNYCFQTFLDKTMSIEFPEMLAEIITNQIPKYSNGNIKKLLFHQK
Chain of ligand binding domain of the glucocorticoid receptor (P04150 524-758): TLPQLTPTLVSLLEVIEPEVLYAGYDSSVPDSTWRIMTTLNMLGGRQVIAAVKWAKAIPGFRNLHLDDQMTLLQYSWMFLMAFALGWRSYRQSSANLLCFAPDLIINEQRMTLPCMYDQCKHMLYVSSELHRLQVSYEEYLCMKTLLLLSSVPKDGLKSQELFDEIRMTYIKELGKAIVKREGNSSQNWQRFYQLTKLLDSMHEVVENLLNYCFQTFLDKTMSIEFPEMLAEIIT
Chain of AR (P10275 whole entry T878A): as the sequence (P10275 whole entry) above, with T878A counted along it

Compound	IC50 (AR; cytosol from LnCaP cells, 3H-R1881 1 nM, 4° C. 24 hrs, read-out: AR binding) [µM]	IC50 [1] [µM]	IC50 (GR) [µM]	IC50 [2] [µM]	IC50 [3] [µM]	IC50 [4] [µM]	GI50 (LNCap cells) [nM]	GI50 (T47D cells) [nM]	IC50 (IEC6 cells) [nM]	IC50 (AR) [µM]
CCc1c2c(nc3ccc(OC(=O)N4CCN(C(=O)CCCCCN(C)c5ccc([C@H]6C[C@@]7(C)[C@@H](CC[C@]7(OC(C)=O)C(C)=O)[C@@H]7CCC8=CC(=O)CCC8=C76)cc5)CC4)cc13)-c1cc3c(c(=O)n1C2)COC(=O)[C@]3(O)CC [Compound 3, (S)-4,11-diethyl-4-hydroxy-3,14-dioxo-3,4,12,14-tetrahydro-1H-pyrano[3′,4′:6,7]indolizino[1,2-b]quinolin-9-yl 4-(6-((4-((8S,11R,13S,14S,17R)-17-acetoxy-17-acetyl-13-methyl-3-oxo-2,3,6,7,8,11,12,13,14,15,16,17-dodecahydro-1H-cyclopenta[a]phenanthren-11-yl)phenyl)(methyl)amino)hexanoyl)piperazine-1-carboxylate]	< 0.01	0.01 to 0.5	< 0.01	0.01 to 0.5	< 0.01	< 0.01	10 to 500	10 to 500	501 to 1000	–
CC[C@@]1(O)C(=O)OCc2c1cc1n(c2=O)Cc2cc3c(CN(C)C)c(OC(=O)N4CCN(CCCCCCN(C)c5ccc([C@H]6C[C@@]7(C)[C@@H](CC[C@]7(OC(C)=O)C(C)=O)[C@@H]7CCC8=CC(=O)CCC8=C76)cc5)CC4)ccc3nc2-1 [Compound 5, (S)-10-((dimethylamino)methyl)-4-ethyl-4-hydroxy-3,14-dioxo-3,4,12,14-tetrahydro-1H-pyrano[3′,4′:6,7]indolizino[1,2-b]quinolin-9-yl 4-(6-((4-((8S,11R,13S,14S,17R)-17-acetoxy-17-acetyl-13-methyl-3-oxo-2,3,6,7,8,11,12,13,14,15,16,17-dodecahydro-1H-cyclopenta[a]phenanthren-11-yl)phenyl)(methyl)amino)hexyl)piperazine-1-carboxylate]	–	> 1	< 0.01	0.01 to 0.5	< 0.01	< 0.01	10 to 500	10 to 500	501 to 1000	0.01 to 0.5
